Measured values taken from US20170298051A1, “ACTIVATOR OF ADIPONECTIN RECEPTOR” (THE UNIVERSITY OF TOKYO, priority 2013, published 2017).

Experiments:
[1] = target: T1, AdipoR1 (Mus musculus, UniProt Q91VH1); experiment: Measurement of AMPK phosphorylation ability (Assay 1), differentiated C2C12 cells, Western blotting; format: cell-based; conditions: 10 μM, 10 minutes
T1 construct: C2C12 cells (ATCC; CRL-1772, medium; host or cells: differentiated C2C12
T1 sequence (Q91VH1 1-375): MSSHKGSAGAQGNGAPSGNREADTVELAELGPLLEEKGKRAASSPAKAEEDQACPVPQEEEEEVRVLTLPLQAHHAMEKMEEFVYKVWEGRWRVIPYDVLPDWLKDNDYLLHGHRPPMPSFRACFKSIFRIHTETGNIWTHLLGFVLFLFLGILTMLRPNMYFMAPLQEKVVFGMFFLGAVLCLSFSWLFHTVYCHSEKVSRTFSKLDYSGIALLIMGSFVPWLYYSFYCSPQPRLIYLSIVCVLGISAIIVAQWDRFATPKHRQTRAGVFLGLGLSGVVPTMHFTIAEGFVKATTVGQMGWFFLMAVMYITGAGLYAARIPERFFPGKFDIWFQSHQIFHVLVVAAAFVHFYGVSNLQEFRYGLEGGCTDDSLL
Protocol: The AMPK phosphorylation ability of the respective compounds according to the present invention was measured by using differentiated C2C12 cells or HEK 293T cells.
C2C12 cells (ATCC; CRL-1772, medium; DMEM, 10% FBS) were cultured in a 12- or 24-well plate until they reached 100% confluency (37° C., 5% CO2).
The medium was changed to 2.5% Horse Serum (HS) and differentiation was started. The medium (DMEM, 2.5% HS) was replaced every three days.
After starvation, a test compound listed in Table 12 (concentration: 10 μM) was added thereto, and after 10 minutes, the medium was discarded and the plate was frozen with liquid nitrogen.
To the 12- or 24-well cell plate which had been frozen was added 100 or 150 μL of Cell lysis buffer pH 7.4 (50 mM HEPES (pH 7.4), 2 mM sodium orthovanadate, 10 mM sodium pyrophosphate, 10 mM NaF, 2 mM EDTA, 2 mM EGTA, 0.1% (v/v) NP-40, 0.2 mM PMSF), and the cells were scraped off with a cell scraper, suspended and transferred into a micro centrifugal tube. And then, the cells were ultrasonically crushed (1 second×3 times) with a sonicator. Centrifugation was performed at 4° C. at 15,000 rpm for 15 minutes, and the supernatant was recovered into a new tube.
To 100 μL of the supernatant was added 25 μL of 5× sample buffer (280 mM Tris-HCl (pH 6.9), 40% glycerol, 10% (3-mercaptoethanol, 13% SDS, a small amount of bromophenol blue) and mixed together. The rest of the supernatant was used for protein quantification, and the protein concentrations were uniformed by adding 1× sample buffer depending on the concentration of each sample.
An electrophoresis chamber was filled with 1× SDS buffer (25 mM Tris-HCl, 250 mM glycine, 0.1% SDS), and the sample was applied to a well of polyacrylamide gel. Electrophoresis was performed until the bromophenol blue in the sample reached to the bottom of the gel.
A filter paper was soaked in 1× Transfer buffer sufficiently, above which the PVDF membrane and the gel after electrophoresis were stacked in this order, and thereabove a filter paper which had been soaked in 1× Transfer buffer sufficiently was further stacked, from which an air was removed and the resultant was set in semi-dry type transfer apparatus and transferred (7V, 35 minutes).
An unnecessary portion of the blotted membrane was cutoff, and the rest was immediately soaked in blocking buffer (5% skimmed milk in Rinse buffer), and shaken at room temperature at 40 rpm for 3 hours.
After blocking, the membrane was transferred into Rinse buffer, and washed at room temperature for 10 minutes while shaking. The membrane was soaked in a primary antibody solution (AMPK alpha Antibody (Cell signaling; #2532) 1/1,000 in Rinse buffer, Phospho-AMPK alpha (Thr172) (40H9) antibody (Cell signaling; #2535) 1/1,000 in Rinse buffer), and shaken at 4° C. at 40 rpm overnight.
The membrane was soaked in a secondary antibody solution (goat anti-rabbit IgG-HRP Antibody (Santa Cruz; sc-2030) 1/2,000 in Rinse buffer), and shaken at room temperature at 40 rpm for 1 hour.
After the membrane was washed for 45 minutes in the same way as after the primary antibody reaction, the membrane was soaked in a chemiluminescent reaction solution (ECL Western Blotting Detection Reagents, GE Healthcare) for about 1 minute. An excess of the reaction solution was removed, and then the membranes were arranged on a transparent film and sandwiched with it, with which an X-ray film was exposed in a darkroom (for about several seconds to 60 seconds) to develop the film.
The X-ray film was scanned to take the image, for which the band was measured by using the image analysis software “Image J” to determine the respective amounts of pAMPK and AMPK.

[2] = tested on: AdipoR1; experiment: Measurement of AMPK phosphorylation ability (Assay 2), C2C12 cells with unrelated or AdipoR1 siRNA; format: cell-based, Mouse
Protocol: C2C12 cells (ATCC; CRL-1772, medium; DMEM, 10% Fetal Bovine Serum (FBS)) were cultured in a 12- or 24-well plate until they reached 100% confluency (37° C., 5% CO2). The medium was changed to DMEM, 2.5% Horse Serum (HS) and differentiation was started. The medium (DMEM, 2.5% HS) was replaced two days after the start of differentiation. The medium (DMEM, 2.5% HS) was further replaced two days after that.
On the next day following the replacement of the medium, first, 1 μL of Lipofectamine RNAiMAX and 50 μL of OPTI-MEM were mixed, and then 5 μM siRNA (sense siRNA sequence: […]tt (SEQ ID NO: 1)) and 50 μL of OPTI-MEM were mixed and the resultants were left to stand at room temperature for 5 minutes. And then, the 1 μL Lipofectamine RNAiMAX/50 μL OPTI-MEM and the 5 μM siRNA/50 μL OPTI-MEM were mixed, and the resultant was left to stand at room temperature for 10 minutes, which was added to the cells.
After 5 minutes, the medium (DMEM, 2.5 HS) was replaced, and after starvation on the next day, a test compound listed in Table 12 was added thereto. After 10 minutes, the medium was discarded and the plate was frozen with liquid nitrogen.
The respective amounts of pAMPK and AMPK were determined in the same way as in the above Assay 1.

| SMILES | pAMPK/AMPK (%) [1] [%] | pAMPK/AMPK (ratio) siRNA, AdipoR1 siRNA [2] [ratio] | pAMPK/AMPK (ratio) siRNA, unrelated siRNA [2] [ratio] |
| --- | --- | --- | --- |
| COc1ccc(C(=O)N2CCN(Cc3ccc(C(F)(F)F)cc3)CC2)cc1OC [No. 191294] | 89.56 | 3.54 | 3.25 |
| CC#CCN(Cc1ccco1)C(=O)c1ccc(OC2CCN(Cc3ccccn3)CC2)cc1 [No. 272350] | 84.20 | 2.54 | 2.03 |
| Cc1cccc(CN2CCC(Oc3ccc(C(=O)NC4CCCC4)cc3Cl)CC2)n1 [No. 492284] | 90.14 | 1.88 | 2.05 |
| O=C(NC1CCCC1)c1ccc(OC2CCN(Cc3ccoc3)CC2)c(Cl)c1 [No. 268508] | 80.12 | 2.87 | 2.58 |
| CCOc1cccc(CN2CCC(Oc3ccc(C(=O)NCCOC)cc3Cl)CC2)c1 [No. 214617] | 91.97 | 2.78 | 2.21 |
| C#CCN(Cc1ccco1)C(=O)c1ccc(OC2CCN(Cc3ccccn3)CC2)cc1 [No. 268949] | 86.36 | 2.82 | 3.10 |
| COc1ccccc1N1CCN(CCC(=O)Nc2cccc(Cl)c2)CC1 [No. 189474] | 88.87 | 1.62 | 2.00 |
| CC(C)N(Cc1cnn(C)c1)C(=O)c1ccc(OC2CCN(Cc3ccccn3)CC2)cc1 [No. 206685] | 90.15 | 2.39 | 1.76 |
| COc1ccccc1CN1CCC(Oc2ccc(C(=O)NC3CCCC3)cc2Cl)CC1 [No. 272299] | 91.22 | 2.60 | 2.83 |
| COCCNC(=O)c1ccc(OC2CCN([C@@H](C)COc3ccccc3)CC2)c(Cl)c1 [No. 211156] | 93.79 | 2.59 | 2.36 |
| COCCNC(=O)c1ccc(OC2CCN(Cc3cc(OC)ccc3F)CC2)c(Cl)c1 [No. 274971] | 81.64 | 2.51 | 2.38 |
